Data: article PMC5872125, “Fragment-Based Discovery of Inhibitors of the Bacterial DnaG-SSB Interaction” (Antibiotics, 2018)
“And” between values parts separate entries of the source, which are not always exact repeats. Identical values can stand only once.

Columns and labels:
DnaGC = molecular target: T1, DnaGC (Escherichia coli, UniProt P0ABS5); assay: 1D 19F-NMR binding; settings: compound 1 mM, 50 μM DnaGC (20-fold excess)
T1 construct: made in house
From the text: The observed NMR peak shifts were consistent with the docked orientation. The negatively charged tetrazole is predicted to form favorable electrostatic and hydrogen bond interactions with the side chains of K447 and R452. The methyl groups of L446, M451, L455, L484 T515 and L519 form a hydrophobic pocket accommodating two aromatic rings of the compound. One of the fluorine atoms is about 3 Å from the amide group of G481 while the second at the para-position of the phenoxy group points out of the pocket toward K518. In the docked conformation, these fluorine atoms are involved in hydrogen bond formation with these two residues (Figure 4). To test the docked orientation of 5, 1D ^19F-NMR was carried out using a 20-fold excess of compound over protein.
(§1) 1D ^19F-NMR spectra were recorded on a Bruker Avance III 400 MHz NMR spectrometer (Bruker, Karlsruhe, Germany) equipped with the two-channel BBO probe with z-gradient at 300 K. All ^19F-NMR spectra were recorded with 256 scans for fragment and complex samples sequentially. Fragments dissolved in ^2H6-DMSO were diluted in HSQC buffer to give final fragment and protein concentrations of 1 mM and 50 μM, respectively.

[1] = molecular target: T2, DnaGC (C-terminal helicase-binding domain of DnaG primase) (Escherichia coli, UniProt P0ABS5); assay: 15N–1H HSQC NMR titration (binding affinity); settings: 15N–1H HSQC titration, change in chemical shift with incremental additions of ligand; roughly estimated
T2 construct: made in house
Protocol: The final volume of each sample was 150 μL. The recording time was 30 min for each ^15N–^1H HSQC experiment. A standard pulse sequence was used for data acquisition. Spectra were recorded at 298 K with a Bruker Avance 600 MHz NMR spectrometer equipped with cryoprobe and auto-sample changer. […] The spectra were processed with TOPSPIN 3.1 and analyzed using CCPN [43]. Weighted CSP values were calculated as
Binding affinities were estimated by incremental titration of fragments into protein, with recording of a ^15N–^1H HSQC experiment at each concentration point. Compound solubilities were tested to determine the highest concentrations of ligands used in assays. Equilibrium dissociation constants from NMR titration data were derived using the “single site-specific binding with ligand depletion” model in GraphPad Prism v.6.0 (La Jolla, CA, USA).

E. coli χ = E. coli χ (Escherichia coli, UniProt P28905); assay: 1D 19F-NMR binding; settings: in the presence of E. coli χ
Protocol: The fragments identified here and the first generation of optimized leads for DnaGC were tested against other SSB-Ct binding partners including E. coli PriA, E. coli RNAse HI, and the χ subunit of E. coli and Acinetobacter baumannii DNA polymerase III. STD-NMR was used to assess binding.
as §1

T2 sequence (P0ABS5 434-581): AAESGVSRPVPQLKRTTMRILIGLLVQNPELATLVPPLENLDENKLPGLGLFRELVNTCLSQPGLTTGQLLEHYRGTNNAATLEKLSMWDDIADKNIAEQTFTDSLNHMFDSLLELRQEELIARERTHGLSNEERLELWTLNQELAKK
T1 sequence (P0ABS5 434-581): as above
Chain of E. coli χ (P28905 whole entry, the tested form may be a part): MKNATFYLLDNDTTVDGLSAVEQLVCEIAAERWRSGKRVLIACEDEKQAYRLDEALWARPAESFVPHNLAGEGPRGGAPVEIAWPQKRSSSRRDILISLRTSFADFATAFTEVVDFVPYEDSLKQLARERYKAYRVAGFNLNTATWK

| SMILES | binding by 1D 19F-NMR (DnaGC) | Kd [1] | binding by 1D 19F-NMR (E. coli χ) |
| --- | --- | --- | --- |
| Fc1ccc(Oc2cccc(F)c2-c2nnn[nH]2)cc1 [Compound 5, 5-[2-fluoro-6-(4-fluorphenoxy)phenyl]tetrazol-1-ide] | confirming binding | 1300 µM and ~1300 µM |  |
| c1ccc(Oc2cccc(-c3nn[nH]n3)c2)cc1 [Compound 6] |  | 1200 µM and ~1200 µM |  |
| O=C(O)CN1C(=O)c2cccc3cccc1c23 [Fragment 1] |  | ~1100 µM |  |
| O=C(O)CSc1c[nH]c2ccccc12 [Fragment 2] |  | ~3100 µM |  |
| O=C(O)CCSc1ccccc1 [Fragment 3] |  | ~2800 µM |  |
| Fc1ccc(-c2nnn[nH]2)cc1 [Fragment 4] |  | ~3200 µM | demonstrated binding |
